# Laboratory results reported in EP0920487B1, “COMPOSITION AND METHOD FOR INHIBITING THE DEPOSITION OF PROTEIN ON CONTACT LENS” (BAUSCH & LOMB INCORPORATED, priority 1996, dated 1997).
# Tested on: lysozyme
# Test: SPE protein-binding inhibition screening (Sep-Pak Accell Plus CM solid-phase extraction cartridge, absorbance of eluent at 280 nm)
# Set-up: species or system hen
# Conditions: test compound 1% in BBS; then 0.05% lysozyme; corrected for BBS control
# From the text: In another aspect of the present invention, selected polyquaternium polymers simultaneously satisfy the dual requirements of both (i) meeting ophthalmological safety standards for an in-the-eye contact-lens solution at concentrations of 1000 ppm and (ii) inhibiting protein binding to a contact lens. The safety requirements can be determined according to the so-called NRDR (neutral red dye release) assay for cytotoxicity described in the Examples. In particular, the polyquaternium polymer should have an NRDR assay rating of L or less at a level of 1000 ppm., preferably L or less at a level of 500 ppm (dry weight of polymer, correcting for water content of the available polymer material). […] The material in this extraction cartridge is a weak cation exchanger that contains a silica support coated with a polymer having carboxymethyl groups. This extraction cartridge is first treated with a 1.0% solution of the polyquaternium polymer in borate-buffered saline followed by exposing the solid phase extraction cartridge to 0.05% lysozyme. The amount of protein-binding inhibition is determined compared to a control solution. […] Preferably, the SPE protein-binding inhibition is at least 20%, more preferably at least 30%, most preferably at least 35%.
# This Experiment illustrates the measurement of the protein-displacing effects of various polyquaternium polymers. Among the polyquaternium polymers tested, the polymers varied with respect to the comonomers making up the polymer, the respective proportion of comonomers, and/or the molecular weight of the polymer. The following screening procedure was used. […] The absorbance measurements were conducted by (1) taking an initial absorbance with BBS in a 1 cm cuvette, which reading should be 0.000, re-autozeroing if necessary with BBS, (2) rinsing and filling the cuvette with 0.05% lysozyme solution and reading the absorbance to obtain the "maximum inhibition value', and (3) reading the absorbances for the solutions in the test tubes used to collect the eluents from the test cartridges. […]
row,Substance,Average % SPE Binding Inhibition
1,benzalkonium bromide [BAB],8%
2,benzalkonium chloride [BAK],3%
3,lauryl methyl gluceth-10 hydroxy-propyl dimonium chloride [Gluquat® 125],2%
